Laboratory results reported in US5891912A, “1,3-dialkylurea derivatives having a hydroxyl group” (Santen Pharmaceutical Co., Ltd., priority 1994, dated 1999).

Target: T1, endopeptidase 24.11 (Rattus norvegicus, UniProt P07861)
T1 construct: was prepared by extracting from a rat kidney; from tissue; host or cells: Wistar rat kidney, homogenate pellet after ultracentrifugation (crude membrane preparation)
T1 sequence (P07861 1-750): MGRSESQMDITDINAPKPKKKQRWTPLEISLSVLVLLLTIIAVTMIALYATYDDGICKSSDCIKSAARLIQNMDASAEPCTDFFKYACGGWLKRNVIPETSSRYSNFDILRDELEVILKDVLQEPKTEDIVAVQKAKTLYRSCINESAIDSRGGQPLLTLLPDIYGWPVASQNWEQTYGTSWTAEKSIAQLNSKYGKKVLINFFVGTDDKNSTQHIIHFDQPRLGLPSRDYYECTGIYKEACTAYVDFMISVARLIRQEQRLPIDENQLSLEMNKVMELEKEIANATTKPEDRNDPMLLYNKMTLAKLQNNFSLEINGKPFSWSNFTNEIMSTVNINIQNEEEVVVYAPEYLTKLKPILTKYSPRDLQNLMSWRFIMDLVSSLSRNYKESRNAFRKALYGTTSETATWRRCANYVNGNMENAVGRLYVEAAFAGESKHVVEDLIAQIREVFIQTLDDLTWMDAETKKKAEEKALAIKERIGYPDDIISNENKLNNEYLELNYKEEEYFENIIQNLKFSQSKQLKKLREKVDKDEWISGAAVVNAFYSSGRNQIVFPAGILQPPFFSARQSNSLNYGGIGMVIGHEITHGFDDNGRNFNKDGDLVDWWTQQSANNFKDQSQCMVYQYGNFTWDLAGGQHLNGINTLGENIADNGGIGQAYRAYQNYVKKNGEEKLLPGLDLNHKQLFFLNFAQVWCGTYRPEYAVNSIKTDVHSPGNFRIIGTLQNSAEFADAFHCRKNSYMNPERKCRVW
Assay: inhibition of endopeptidase 24.11 activity (cleavage of N-dansyl-D-alanyl-glycyl-p-nitrophenylalanyl-glycine, DAGNPG; rat kidney enzyme preparation)
Format: biochemical, Wistar rat
Settings: DAGNPG 50 μM, pH 7.4, 37° C., 30 minutes, read-out: IC50 (concentration required to inhibit endopeptidase 24.11 by 50%)
Description: As a method for measuring an endopeptidase 24.11 activity, Florentin et al. had reported a method for measuring the enzyme activity by a degree of cleavage of a peptide bond between glycine and p-nitrophenylalanine using N-dansyl-D-alanyl-glycyl-p-nitrophenylalanyl-glycine (DAGNPG) as a substrate (Anal. Biochem., 141, 62-69 (1984)). An effect of the compounds of the invention on endopeptidase 24.11 was examined according to the method described in the literature.
An enzyme preparation used in this pharmacological test was prepared by extracting from a rat kidney by the following method according to the method of Malfloy et al. (J. Biol. Chem., 259, 14365-14370 (1984)).
A kidney was excised from a Wistar rat. The kidney was homogenized in Tris-hydrochloric acid buffer (5 mM, pH 7.4, containing 125 mM D-mannitol and 12 mM magnesium chloride). The homogenate was centrifuged at low speed (1,000×g) to give a supernatant. The supernatant was ultracentrifuged ([…]) for 120 minutes. The resulting pellet was suspended in Tris-hydrochloric acid buffer (2.5 mM, pH 7.4, containing 62.5 mM D-mannitol and 6 mM magnesium chloride). The suspension was centrifuged at low speed and then ultracentrifuged again. The resulting pellet was suspended in HEPES buffer (5 mM, pH 7.4) to give the enzyme preparation.
In order to examine the effect of the compounds of the invention on the enzyme preparation, reactions were performed under the following condition using mixed solutions consisting of the composition shown in Table 1. […]
______________________________________
Enzyme preparation 0.3-0.5 μg protein
The above-mentioned solution (150 μl) was incubated at 37° C. for 30 minutes and then boiled at 100° C. for 5 minutes. To the solution was added 1.35 ml of Tris-hydrochloric acid buffer (50 mM, pH 7.4). The mixture was centrifuged at moderate speed (5,000×g) for 5 minutes to give a supernatant. Fluorescence intensity of the supernatant (excitation at 342 nm of wave length and emission at 562 nm) was measured.
The degree of the inhibitory effect of each test compound on the enzyme preparation was expressed by the inhibition rate calculated by the following equation. [formula]
A: fluorescence intensity of the sample in the absence of the test compound
B: fluorescence intensity of the sample in the presence of the test compound

SMILES	IC50
CC(C)CN(C[C@H](O)C(=O)NO)C(=O)N[C@@H](Cc1ccc(-c2ccccc2)cc1)C(=O)O [Compound No. 8-9, (2S)-3-(4-Biphenylyl)-2-[3-[(2S)-2-hydroxy-2-hydroxycarbamoylethyl]-3-isobutylureido]propionic acid]	0.16 nM
CC(C)CN(C[C@H](O)C(=O)NO)C(=O)N[C@@H](Cc1ccc2ccccc2c1)C(=O)O [Compound No. 9-1, (2S)-2-[3-[(2S)-2-Hydroxy-2-hydroxycarbamoylethyl]-3-isobutylureido]-3-(2-naphthyl)propionic acid]	0.27 nM
CC(C)CN(CC(O)C(=O)O)C(=O)N[C@@H](Cc1ccc(-c2ccccc2)cc1)C(=O)O (mixture of isomers) [Compound No. 3-1, (2S)-3-(4-Biphenylyl)-2-[3-[(2RS)-2-carboxy-2-hydroxyethyl]-3-isobutylureido]propionic acid]	1.1 nM
CC(C)CN(C[C@H](O)C(=O)O)C(=O)N[C@@H](Cc1ccc(-c2ccccc2)cc1)C(=O)O [Compound No. 8-2, (2S)-3-(4-Biphenylyl)-2-[3-[(2S)-2-carboxy-2-hydroxyethyl]-3-isobutylureido]propionic acid]	0.95 nM
CC(C)CN(CC(O)C(=O)O)C(=O)N[C@H](C(=O)O)c1ccccc1 (mixture of isomers) [Compound No. 3-4, (2RS)-3-[3-[(S)-α-Carboxybenzyl]-1-isobutylureido]-2-hydroxypropionicacid]	65 nM
CC(C)CN(C[C@H](O)C(=O)NO)C(=O)N[C@@H](Cc1ccccc1)C(=O)O [Compound No. 8-1, (2S)-2-[3-[(2S)-2-Hydroxy-2-hydroxycarbamoylethyl]-3-isobutylureido]-3-phenylpropionic acid]	0.32 nM
CC(C)CN(CC(O)C(=O)O)C(=O)N[C@@H](Cc1ccc(-c2ccc(F)cc2)cc1)C(=O)O (mixture of isomers) [Compound No. 3-2, (2S)-2-[3-[(2RS)-2-Carboxy-2-hydroxyethyl]-3-isobutylureido]-3-[4-(4-fluorophenyl)phenyl]propionic acid]	3.1 nM
CC(C)CN(C[C@@H](O)C(=O)O)C(=O)N[C@@H](Cc1ccc(-c2ccccc2)cc1)C(=O)O [Compound No. 8-3, (2S)-3-(4-Biphenylyl)-2-[3-[(2R)-2-carboxy-2-hydroxyethyl]-3-isobutylureido]propionic acid]	2.1 nM
CC(C)CN(CC(O)C(=O)O)C(=O)N[C@@H](Cc1ccccc1)C(=O)O (mixture of isomers) [Compound No. 2-1, (2S)-2-[3-[(2RS)-2-Carboxy-2-hydroxyethyl]-3-isobutylureido]-3-phenylpropionic acid]	5.4 nM
